Assay: mn = molality of the nth substance listed, in mol/kg
Settings: Liquid, Vibrating tube method

[Br-].[Li+] [lithium bromide] + CCO
Settings | mass density [kg/m3]
273.09 K, 4590 kPa, m1 = 2.272 | 943.92
273.13 K, 30024 kPa, m1 = 0.2335 | 841.53
273.14 K, 5012 kPa, m1 = 0.2335 | 824.8
273.14 K, 29954 kPa, m1 = 2.833 | 990.17
273.14 K, 49926 kPa, m1 = 2.833 | 1001.06
273.14 K, 80014 kPa, m1 = 0.2335 | 868.58
273.15 K, 1023 kPa, m1 = 0.2335 | 821.76
273.15 K, 1024 kPa, m1 = 0.9499 | 866.06
273.15 K, 1024 kPa, m1 = 2.833 | 971.83
273.15 K, 1537 kPa, m1 = 3.368 | 1000.06
273.15 K, 2048 kPa, m1 = 1.462 | 896.66
273.15 K, 5002 kPa, m1 = 2.833 | 974.56
273.15 K, 5021 kPa, m1 = 0.9499 | 868.77
273.15 K, 10002 kPa, m1 = 0.2335 | 828.53
273.15 K, 10002 kPa, m1 = 0.9499 | 872.07
273.15 K, 10177 kPa, m1 = 2.272 | 947.5
273.15 K, 19956 kPa, m1 = 2.833 | 984.22
273.15 K, 20031 kPa, m1 = 0.2335 | 835.19
273.15 K, 20031 kPa, m1 = 0.9499 | 878.51
273.15 K, 30045 kPa, m1 = 0.9499 | 884.65
273.15 K, 39945 kPa, m1 = 0.2335 | 847.51
273.15 K, 39974 kPa, m1 = 2.833 | 995.79
273.15 K, 40015 kPa, m1 = 0.9499 | 890.49
273.15 K, 49923 kPa, m1 = 0.2335 | 853.22
273.15 K, 50027 kPa, m1 = 0.9499 | 896.06
273.15 K, 59570 kPa, m1 = 2.272 | 975.51
273.15 K, 60021 kPa, m1 = 2.833 | 1006.15
273.15 K, 60029 kPa, m1 = 0.9499 | 901.35
273.15 K, 69980 kPa, m1 = 2.272 | 980.49
273.15 K, 70002 kPa, m1 = 0.9499 | 906.34
273.15 K, 70003 kPa, m1 = 0.2335 | 863.78
273.15 K, 70035 kPa, m1 = 2.833 | 1010.98
273.15 K, 79857 kPa, m1 = 2.272 | 985.04
273.15 K, 79954 kPa, m1 = 0.9499 | 911.03
273.15 K, 89925 kPa, m1 = 2.272 | 989.55
273.15 K, 89935 kPa, m1 = 0.9499 | 915.46
273.15 K, 89956 kPa, m1 = 2.833 | 1020.12
273.15 K, 90023 kPa, m1 = 0.2335 | 873.07
273.15 K, 99945 kPa, m1 = 0.2335 | 877.21
273.15 K, 99986 kPa, m1 = 0.9499 | 919.63
273.15 K, 99986 kPa, m1 = 2.833 | 1024.57
273.16 K, 5195 kPa, m1 = 1.462 | 898.75
273.16 K, 10032 kPa, m1 = 2.833 | 977.92
273.16 K, 20027 kPa, m1 = 3.368 | 1011.76
273.16 K, 29980 kPa, m1 = 3.368 | 1017.69
273.16 K, 39977 kPa, m1 = 3.368 | 1023.39
273.16 K, 49994 kPa, m1 = 0.5972 | 875.26
273.16 K, 59884 kPa, m1 = 0.5972 | 880.54
273.16 K, 59985 kPa, m1 = 0.2335 | 858.67
273.16 K, 69990 kPa, m1 = 0.5972 | 885.63
273.16 K, 80061 kPa, m1 = 2.833 | 1015.64
273.16 K, 100090 kPa, m1 = 2.272 | 994.02
273.17 K, 1948 kPa, m1 = 2.272 | 941.72
273.17 K, 9742 kPa, m1 = 1.462 | 901.73
273.17 K, 10114 kPa, m1 = 3.368 | 1005.6
273.17 K, 19964 kPa, m1 = 0.5972 | 857.46
273.17 K, 20349 kPa, m1 = 2.272 | 953.97
273.17 K, 29947 kPa, m1 = 2.272 | 959.72
273.17 K, 29993 kPa, m1 = 0.5972 | 863.7
273.17 K, 39918 kPa, m1 = 0.5972 | 869.58
273.17 K, 49964 kPa, m1 = 2.272 | 970.63
273.17 K, 49974 kPa, m1 = 3.368 | 1028.82
273.17 K, 80091 kPa, m1 = 0.5972 | 890.43
273.17 K, 89924 kPa, m1 = 3.368 | 1047.9
273.17 K, 89993 kPa, m1 = 0.5972 | 894.84
273.17 K, 99951 kPa, m1 = 3.368 | 1052.03
273.18 K, 1306 kPa, m1 = 0.5972 | 845.06
273.18 K, 4686 kPa, m1 = 0.5972 | 847.38
273.18 K, 4965 kPa, m1 = 3.368 | 1002.3
273.18 K, 9917 kPa, m1 = 0.5972 | 850.91
273.18 K, 20115 kPa, m1 = 1.462 | 908.3
273.18 K, 29966 kPa, m1 = 1.462 | 914.27
273.18 K, 49922 kPa, m1 = 1.462 | 925.55
273.18 K, 60091 kPa, m1 = 1.462 | 930.87
273.18 K, 60277 kPa, m1 = 3.368 | 1034.14
273.18 K, 69993 kPa, m1 = 1.462 | 935.78
273.18 K, 69994 kPa, m1 = 3.368 | 1038.9
273.18 K, 79725 kPa, m1 = 3.368 | 1043.43
273.18 K, 80129 kPa, m1 = 1.462 | 940.52
273.18 K, 89963 kPa, m1 = 1.462 | 944.86
273.18 K, 100098 kPa, m1 = 0.5972 | 899.04
273.19 K, 39973 kPa, m1 = 1.462 | 920.07
273.19 K, 40359 kPa, m1 = 2.272 | 965.49
273.2 K, 99708 kPa, m1 = 1.462 | 948.89
293.12 K, 9790 kPa, m1 = 1.462 | 886.75
293.13 K, 1999 kPa, m1 = 1.462 | 881.23
293.13 K, 5005 kPa, m1 = 1.462 | 883.38
293.13 K, 19962 kPa, m1 = 1.462 | 893.68
293.13 K, 29997 kPa, m1 = 1.462 | 900.21
293.13 K, 30014 kPa, m1 = 0.2335 | 827.08
293.13 K, 40468 kPa, m1 = 1.462 | 906.69
293.13 K, 49901 kPa, m1 = 1.462 | 912.25
293.13 K, 59950 kPa, m1 = 3.368 | 1019.25
293.14 K, 5014 kPa, m1 = 0.2335 | 809.13
293.14 K, 10097 kPa, m1 = 3.368 | 989.9
293.14 K, 19953 kPa, m1 = 2.833 | 969.14
293.14 K, 49968 kPa, m1 = 2.833 | 986.92
293.14 K, 49985 kPa, m1 = 0.2335 | 839.79
293.14 K, 59817 kPa, m1 = 0.5972 | 867.48
293.14 K, 60137 kPa, m1 = 1.462 | 917.97
293.14 K, 69946 kPa, m1 = 3.368 | 1024.25
293.14 K, 69979 kPa, m1 = 0.5972 | 872.97
293.14 K, 69979 kPa, m1 = 1.462 | 923.18
293.14 K, 79675 kPa, m1 = 0.5972 | 877.88
293.15 K, 1003 kPa, m1 = 0.2335 | 805.64

From the NIST ThermoML archive (doi:10.1021/je1003065)
